Experimental data reported in US20230416329A1, “A PEPTIDE WITH DISULFIDE BONDS AND INHIBITORY ACTIVITY AGAINST SERINE PROTEASES, DERIVED HYBRID PEPTIDES THEREOF, AND USES THEREOF” (INSTITUTE OF MATERIA MEDICA , CHINESE ACADEMY OF MEDICAL …, priority 2020, published 2023).
Bridge positions count the residues as written; N and C are the ends. Peptide text beside a SMILES is read from it.

Target: T1, bovine trypsin (Bos taurus, UniProt P00760)
T1 sequence (P00760 24-246): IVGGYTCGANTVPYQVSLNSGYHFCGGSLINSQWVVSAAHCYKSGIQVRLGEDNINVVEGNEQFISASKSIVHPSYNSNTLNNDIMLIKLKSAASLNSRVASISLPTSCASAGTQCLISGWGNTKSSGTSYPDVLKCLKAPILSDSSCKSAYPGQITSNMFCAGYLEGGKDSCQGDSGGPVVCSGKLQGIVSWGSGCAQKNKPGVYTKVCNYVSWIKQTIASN
Assay: Trypsin inhibitory activity of peptides (BApNA hydrolysis, OD405; IC50, Ki, residual activity)
Format: biochemical
Details: for Ki: read-out: inhibition constant (Ki) towards trypsin; for IC50: trypsin 50 nM, BApNA 1.22 mM, read-out: IC50
Procedure: The substrates N-succinyl-Ala-Ala-Pro-Phe-p-nitroaniline (AAPFpNA), Nα—Benzoyl-L-arginine-4-nitroaniline hydrochloride (BApNA) and N-succinyl-[…] (AAApNA) are used in competitive binding reaction to determine the inhibitory activities against α-chymotrypsin, bovine trypsin, and porcine pancreatic elastase, respectively. Experiments for α-chymotrypsin and bovine trypsin inhibition were measured in 20 mM CaCl2, 50 mM Tris-HCl buffer (pH 7.8), and that for porcine elastase inhibition was measured in 50 mM Tris-HCl buffer (pH 8.0). The concentration of the peptide was measured using optical density (OD) at 280 nm. The Michaelis constant (Km) of the enzyme hydrolysis substrate is calculated from the initial rate of substrate hydrolysis at 405 nm. The absorbance value of the substrate was measured at 405 nm after complete hydrolysis. All data were processed using nonlinear regression.
• (1) Added 200 μL of reaction buffer (20 mM CaCl2 and 50 mM Tris-HCl, pH 7.8) into the 96-well plate, and preheated at 37° C. for 15 min. Then added 5 μL of different concentrations of substrates (p-Nitroanilide, pNA, 0.5% in DMSO), and mixed by centrifugation at 500 rpm for 1 min. […] The experiment was performed in triplicate. The standard curve was obtained by plotting the OD405 nm value with pNA concentration. • (2) Added 190 μL of reaction buffer (20 mM CaCl2 and 50 mM Tris-HCl, pH 7.8) and 10 μL of 1 μM trypsin into the 96-well plate, and preheated at 37° C. for 15 min. Then added 5 μL of different concentrations of substrates (BApNA, 0.5% in DMSO) and mixed by centrifugation at 500 rpm for 1 min. […] The experiment was performed in triplicate. The corresponding curve was obtained by plotting the OD405 nm value with time. Divided the slope of the curve by the slope of the standard curve and the enzyme concentration to obtain the initial velocity V0 (mM/(min*mM protein). Plotted the initial velocity V0 with the concentration of substrate BApNA using Prism software, and the Michaelis constant Km value of trypsin hydrolyzing BApNA was obtained.
• (1) Added a total 190 μL of reaction buffer (20 mM CaCl2 and 50 mM Tris-HCl, pH 7.8) along with different concentrations of anti-trypsin peptides (BTs) into the pre-cooled 96-well plate, followed by preheating at 37° C., and spined down at 500 rpm for 5 min. Next added 10 μL of 1 μM trypsin, incubated at 37° C., and then spined down at 500 rpm for 10 min. Finally, added 5 μL of 50 mM BApNA, and mixed by centrifugation at 500 rpm for 1 min. The plate was incubated at 37° C. for 260 min, and the absorbance value at 405 nm was measured. The experiment was performed in triplicate. The blank control only contained the reaction buffer and the substrate as the minimum absorption value (Min OD405 nm). The negative control only contained the reaction buffer, the enzyme and the substrate as the maximum absorption value (Max OD405 nm). • (2) In the reaction system of 205 μL, the final concentrations of trypsin and BApNA were 50 nM and 1.22 mM, respectively. • (3) Data statistics
Residual activity of the enzyme (%)=(1−(Max OD405 nm−Sample OD405 nm)/(Max OD405 nm−Min OD405 nm))*100
Plotted the residual activity of the enzyme with […] to obtain the half inhibitory concentration (IC50) of BTs scaffold against trypsin. Then, substituted it into the formula Ki=IC50/(1+S/Km) (S, IC50 and Km were substrate concentration, half inhibitory concentration and Michaelis constant, respectively) to obtain the inhibition constant Ki of BTs scaffold against trypsin.

Residual trypsin activity (peptide 0.488 μM) [%]	Residual trypsin activity (peptide 0.98 μM) [%]	Residual trypsin activity (peptide 1.95 μM) [%]	Residual trypsin activity (peptide 4.88 μM) [%]	Ki [µM]	IC50 [µM]	inhibitory activity against trypsin (in words)	Residual trypsin activity (peptide 0.00488 μM) [%]	Residual trypsin activity (peptide 0.0488 μM) [%]	Compound	further results
94.6 ± 1.7	83.6 ± 5.2	72.9 ± 6.1	12.9 ± 1.3	0.65					CC[C@H](C)[C@@H]1NC(=O)[C@@H]2CCCN2C(=O)[C@@H]2CCCN2C(=O)[C@H]([C@@H](C)CC)NC(=O)[C@H](CO)NC(=O)[C@H](CCCCN)NC(=O)[C@H]([C@@H](C)O)NC(=O)CNC(=O)[C@H](CCCCN)NC(=O)[C@H](C)NC(=O)CNC(=O)[C@@H](N)CSSC[C@@H](C(=O)N[C@@H](Cc2ccccc2)C(=O)N2CCC[C@H]2C(=O)N[C@@H](CC(=O)O)C(=O)O)NC1=O [BT2] (H-CGAKGTKSIPPICFPD-OH; disulfide 1-13; N-terminus and C-terminus assumed)	Residual trypsin activity (peptide 2.93 μM): 51.2 ± 9.0%; Residual trypsin activity (peptide 9.76 μM): 4.2 ± 0.4%; Residual trypsin activity (peptide 19.51 μM): 3.7 ± 0.5%; Residual trypsin activity (peptide 39.02 μM): 0.5 ± 0.1%
67.2 ± 4.8	23.3 ± 5.3		1.8 ± 0.9	0.14					CC[C@H](C)[C@@H]1NC(=O)[C@@H]2CCCN2C(=O)[C@@H]2CCCN2C(=O)[C@H]([C@@H](C)CC)NC(=O)[C@H](CO)NC(=O)[C@H](CCCCN)NC(=O)[C@H]([C@@H](C)O)NC(=O)[C@H](C)NC(=O)[C@H](CCCCN)NC(=O)[C@H](C)NC(=O)CNC(=O)[C@@H](N)CSSC[C@@H](C(=O)N[C@@H](Cc2ccccc2)C(=O)N2CCC[C@H]2C(=O)N[C@@H](CC(=O)O)C(=O)O)NC1=O [BT3] (H-CGAKATKSIPPICFPD-OH; disulfide 1-13; N-terminus and C-terminus assumed)	Residual trypsin activity (peptide 0.098 μM): 95.7 ± 3.6%; Residual trypsin activity (peptide 0.1463 μM): 86.8 ± 2.5%; Residual trypsin activity (peptide 0.293 μM): 85.6 ± 1.3%; Residual trypsin activity (peptide 9.76 μM): 0.9 ± 0.4%; Residual trypsin activity (peptide 19.51 μM): 0.1 ± 0.0%
					> 50				CC[C@H](C)[C@@H]1NC(=O)[C@@H]2CCCN2C(=O)[C@@H]2CCCN2C(=O)[C@H]([C@@H](C)CC)NC(=O)[C@H](CO)NC(=O)[C@H](CCCCN)NC(=O)[C@H]([C@@H](C)O)NC(=O)CNC(=O)[C@H](CCCCN)NC(=O)[C@H](C)NC(=O)CNC(=O)[C@@H](N)CSSC[C@@H](C(=O)N[C@@H](CC(=O)O)C(=O)O)NC(=O)[C@H](Cc2ccccc2)NC(=O)CNC1=O [BT4] (H-CGAKGTKSIPPIGFCD-OH; disulfide 1-15 (inferred); N-terminus and C-terminus assumed)	
3.0 ± 0.2	0.7 ± 0.1			0.03		enhanced trypsin inhibitory activity	103.7 ± 5.2	83.1 ± 0.4	CC[C@H](C)[C@@H]1NC(=O)[C@@H]2CCCN2C(=O)[C@@H]2CCCN2C(=O)[C@H]([C@@H](C)CC)NC(=O)[C@H](CO)NC(=O)[C@H](CCCCN)NC(=O)[C@H]([C@@H](C)O)NC(=O)[C@H](C)NC(=O)[C@H](CCCNC(=N)N)NC(=O)CNC(=O)[C@@H](N)CSSC[C@@H](C(=O)N[C@@H](Cc2ccccc2)C(=O)N2CCC[C@H]2C(=O)N[C@@H](CC(=O)O)C(=O)O)NC1=O [BT5] (H-CGRATKSIPPICFPD-OH; disulfide 1-12; N-terminus and C-terminus assumed)	Residual trypsin activity (peptide 0.00098 μM): 104.0 ± 5.2%; Residual trypsin activity (peptide 0.002439 μM): 108.1 ± 2.6%; Residual trypsin activity (peptide 0.098 μM): 75.2 ± 5.9%
25.9 ± 2.9	8.5 ± 0.9	2.8 ± 0.0	1.2 ± 0.2	0.06	0.29	enhanced trypsin inhibitory activity	111.9 ± 7.2		CC[C@H](C)[C@@H]1NC(=O)[C@@H]2CCCN2C(=O)[C@@H]2CCCN2C(=O)[C@H]([C@@H](C)CC)NC(=O)[C@H](CO)NC(=O)[C@H](CCCCN)NC(=O)[C@H]([C@@H](C)O)NC(=O)[C@H](C)NC(=O)[C@H](CO)NC(=O)CNC(=O)[C@@H](N)CSSC[C@@H](C(=O)N[C@@H](Cc2ccccc2)C(=O)N2CCC[C@H]2C(=O)N[C@@H](CC(=O)O)C(=O)O)NC1=O [BT6] (H-CGSATKSIPPICFPD-OH; disulfide 1-12; N-terminus and C-terminus assumed)	Residual trypsin activity (peptide 0.000488 μM): 99.3 ± 7.2%; Residual trypsin activity (peptide 0.002439 μM): 108.6 ± 7.1%; Residual trypsin activity (peptide 0.195 μM): 77.5 ± 7.6%
	5.7 ± 1.7	1.5 ± 0.3		0.05		enhanced trypsin inhibitory activity		95.2 ± 1.1	CC[C@H](C)[C@@H]1NC(=O)[C@@H]2CCCN2C(=O)[C@@H]2CCCN2C(=O)[C@H]([C@@H](C)CC)NC(=O)[C@H](CO)NC(=O)[C@H](CCCCN)NC(=O)[C@H]([C@@H](C)O)NC(=O)[C@H](C)NC(=O)[C@H](C)NC(=O)CNC(=O)[C@@H](N)CSSC[C@@H](C(=O)N[C@@H](Cc2ccccc2)C(=O)N2CCC[C@H]2C(=O)N[C@@H](CC(=O)O)C(=O)O)NC1=O [BT7] (H-CGAATKSIPPICFPD-OH; disulfide 1-12; N-terminus and C-terminus assumed)	Residual trypsin activity (peptide 0.000098 μM): 103.5 ± 1.6%; Residual trypsin activity (peptide 0.0002439 μM): 107.8 ± 3.2%; Residual trypsin activity (peptide 0.000488 μM): 97.9 ± 4.3%; Residual trypsin activity (peptide 0.2439 μM): 48.5 ± 5.3%; Residual trypsin activity (peptide 1.463 μM): 2.9 ± 1.1%
					> 50				CC[C@H](C)[C@@H]1NC(=O)[C@@H]2CCCN2C(=O)[C@@H]2CCCN2C(=O)[C@H]([C@@H](C)CC)NC(=O)[C@H](CO)NC(=O)[C@H](CCCCN)NC(=O)[C@H]([C@@H](C)O)NC(=O)[C@H](C)NC(=O)[C@H](CCCNC(=N)N)NC(=O)CNC(=O)[C@@H](N)CSSC[C@@H](C(=O)O)NC1=O [BT8] (H-CGRATKSIPPIC-OH; disulfide 1-12 (inferred); N-terminus and C-terminus assumed)	
−0.2 ± 0.1	−0.4 ± 0.0			0.01	0.07	excellent trypsin inhibitory activities	99.0 ± 0.5	68.1 ± 1.4	CC[C@H](C)[C@@H]1NC(=O)[C@@H]2CCCN2C(=O)[C@@H]2CCCN2C(=O)[C@H]([C@@H](C)CC)NC(=O)[C@H](CO)NC(=O)[C@H](CCCCN)NC(=O)[C@H]([C@@H](C)O)NC(=O)[C@H](C)NC(=O)[C@H](CCCNC(=N)N)NC(=O)CNC(=O)[C@@H](N)CSSC[C@@H](C(=O)N[C@@H](Cc2ccccc2)C(=O)O)NC1=O [BT9] (H-CGRATKSIPPICF-OH; disulfide 1-12; C-terminus assumed)	Residual trypsin activity (peptide 0.00098 μM): 100.4 ± 0.6%; Residual trypsin activity (peptide 0.0098 μM): 94.3 ± 1.3%; Residual trypsin activity (peptide 0.02439 μM): 84.2 ± 1.9%; Residual trypsin activity (peptide 0.2439 μM): 0.3 ± 0.0%
